These results are taken from BindingDB's records for doi:10.1016/j.bmcl.2003.12.105 (Ucb Pharma, 2004).

The first test is described as follows: Inhibition of [3H](+)-pentazocine binding to Sigma receptor type 1.
Consider `COc1ccc2c(c1)[C@]1(CCN(C)CCO)CCCC[C@@H]1C=C2` [2-{[2-((4aS,10aR)-6-Methoxy-1,3,4,10a-tetrahydro-2H-phenanthren-4a-yl)-ethyl]-methyl-amino}-ethanol], for which the affinity, expressed as Ki, was 161 nM.
On the same count and under the same terms, under `COc1ccc2c(c1)[C@]1(CCN(C)CCOCc3ccccc3)CCCC[C@@H]1C=C2` [(2-Benzyloxy-ethyl)-[2-((4aS,10aR)-6-methoxy-1,3,4,10a-tetrahydro-2H-phenanthren-4a-yl)-ethyl]-methyl-amine; compound with GENERIC INORGANIC NEUTRAL COMPONENT] stands 241 nM.
As for `COCCN(C)CC[C@@]12CCCC[C@@H]1C=Cc1ccc(OC)cc12` [(2-Methoxy-ethyl)-[2-((4aS,10aR)-6-methoxy-1,3,4,10a-tetrahydro-2H-phenanthren-4a-yl)-ethyl]-methyl-amine; compound with GENERIC INORGANIC NEUTRAL COMPONENT], the affinity, expressed as Ki, was 49 nM.
For the compound `C=CCN(C)CC[C@@]12CCCC[C@@H]1C=Cc1ccc(OC)cc12` [Allyl-[2-((4aS,10aR)-6-methoxy-1,3,4,10a-tetrahydro-2H-phenanthren-4a-yl)-ethyl]-methyl-amine; compound with GENERIC INORGANIC NEUTRAL COMPONENT], affinity was put at a Ki of 49 nM.
In turn, `COc1ccc2c(c1)[C@]13CCCC[C@@H]1[C@H](C2)N(C)CC3` [DEXTROMETHORPHAN] had a Ki of 348 nM.
`COc1ccc2c(c1)[C@]1(CC[N+](C)(C)C(=O)OC(C)(C)C)CCCC[C@@H]1C=C2` [N-{2-[(4aS,10aR)-6-methoxy-1,2,3,4,4a,10a-hexahydrophenanthren-4a-yl]ethyl}-1-(tert-butoxy)-N,N-dimethylcarbonyl{2-[(4aS,10aR)-6-methoxy-1,2,3,4,4a,10a-hexahydrophenanthren-4a-yl]ethyl}dimethylazanium]: the Ki was over 3300 nM.
Take `COc1ccc2c(c1)[C@]1(CCN(C)C)CCCC[C@@H]1C=C2` [[2-((4aS,10aR)-6-Methoxy-1,3,4,10a-tetrahydro-2H-phenanthren-4a-yl)-ethyl]-dimethyl-amine; compound with GENERIC INORGANIC NEUTRAL COMPONENT]: the Ki amounted to 245 nM.
In turn, `CNCC[C@@]12CCCC[C@@H]1C=Cc1ccc(OC)cc12` [[2-((4aS,10aR)-6-Methoxy-1,3,4,10a-tetrahydro-2H-phenanthren-4a-yl)-ethyl]-methyl-amine] yielded a Ki of 456 nM.
The compound `CCOC(=O)N(C)CC[C@@]12CCCC[C@@H]1C=Cc1ccc(OC)cc12` [[2-((4aS,10aR)-6-Methoxy-1,3,4,10a-tetrahydro-2H-phenanthren-4a-yl)-ethyl]-methyl-carbamic acid ethyl ester] displayed a Ki of over 3300 nM.
Regarding `CN(CC[C@]12CCCC[C@H]1C=Cc1ccc(OCC(=O)OC(C)(C)C)cc12)CC(=O)OC(C)(C)C` [{(4bR,8aS)-4b-[2-(tert-Butoxycarbonylmethyl-methyl-amino)-ethyl]-4b,5,6,7,8,8a-hexahydro-phenanthren-3-yloxy}-acetic acid tert-butyl ester], the Ki is 115 nM.
For the compound `CN(CC[C@@]12CCCC[C@@H]1C=Cc1ccc(OCC(=O)OC(C)(C)C)cc12)CC(=O)OC(C)(C)C` [{(4bS,8aR)-4b-[2-(tert-Butoxycarbonylmethyl-methyl-amino)-ethyl]-4b,5,6,7,8,8a-hexahydro-phenanthren-3-yloxy}-acetic acid tert-butyl ester], the affinity, expressed as Ki, was 14 nM.
Take `COc1ccc2c(c1)[C@]1(CCN(C)CC(=O)OC(C)(C)C)CCCC[C@@H]1C=C2` [{[2-((4aS,10aR)-6-Methoxy-1,3,4,10a-tetrahydro-2H-phenanthren-4a-yl)-ethyl]-methyl-amino}-acetic acid tert-butyl ester; compound with GENERIC INORGANIC NEUTRAL COMPONENT]: the Ki was 37 nM.

Assay in another test: as above
This is another data set of the same source.
For `COc1ccc2c(c1)[C@]1(CCN(C)CC(=O)OC(C)(C)C)CCCC[C@@H]1C=C2` [{[2-((4aS,10aR)-6-Methoxy-1,3,4,10a-tetrahydro-2H-phenanthren-4a-yl)-ethyl]-methyl-amino}-acetic acid tert-butyl ester; compound with GENERIC INORGANIC NEUTRAL COMPONENT], affinity was put at a Ki of 373 nM.
